Test results: PubChem BioAssay AID248 (DTP/NCI, 2004)
Values joined by “and” are separate entries in the source; they are usually repeats but may differ in a detail not shown here. Identical values can stand only once. Toxic doses and inconclusive results are not listed.

System: L1210 leukemia ip in BDF1 mice, survival T/C
Experiment: NCI In Vivo Anticancer Drug Screen. Data for tumor model L1210 Leukemia (intraperitoneal) in B6D2F1 (BDF1) mice
Conditions: endpoint: mean survival time, higher = longer survival
Procedure, shortened: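 In this screen, tumor-bearing mice given compound are compared to those given vehicle, and their survival values are reported as a treated-to-control quotient.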

[1] = dose: 12.5 mg/kg/injection, schedule: Q01DX009 (ip), vehicle: saline with Tween-80
[2] = dose: 100.0 mg/kg/injection, schedule: Q04DX003 (ip), vehicle: Klucel (hydroxypropylcellulose) (HPC)
[3] = dose: 400.0 mg/kg/injection, schedule: Q04DX003 (ip), vehicle: Klucel (hydroxypropylcellulose) (HPC)
[4] = dose: 100.0 mg/kg/injection, schedule: Q01DX001 (ip), vehicle: saline
[5] = dose: 100.0 mg/kg/injection, schedule: Q01DX001 (ip), vehicle: carboxymethylcellulose (CMC)

In the case of `CC(C)CCCC(C)C1CCC2C3CC=C4CC(OCCO)CCC4(C)C3CCC12C` (stereo unspecified), the T/C (dose: 100.0 mg/kg/injection, schedule: Q01DX009 (ip), vehicle: other) is reported as 87 % of control and the T/C (dose: 200.0 mg/kg/injection, schedule: Q01DX009 (ip), vehicle: other) is reported as 105 % of control.
In the case of `Cc1ccc[n+](CC(=O)c2ccccc2)c1`, the T/C (dose: 0.19 mg/kg/injection, schedule: Q04DX003 (ip), vehicle: saline) is reported as 102 % of control, the T/C (dose: 0.39 mg/kg/injection, schedule: Q01DX009 (ip), vehicle: saline) is reported as 98 % of control and the T/C (dose: 0.39 mg/kg/injection, schedule: Q04DX003 (ip), vehicle: saline) is reported as 98 % of control. For the same compound, the T/C (dose: 0.78 mg/kg/injection, schedule: Q01DX009 (ip), vehicle: saline) was 106 % of control, the T/C (dose: 0.78 mg/kg/injection, schedule: Q04DX003 (ip), vehicle: saline) was 96 % of control and the T/C (dose: 1.56 mg/kg/injection, schedule: Q04DX003 (ip), vehicle: saline) was 98 % of control. The T/C (dose: 75.0 mg/kg/injection, schedule: Q01DX001 (ip), vehicle: saline) was 97 % of control, the T/C (dose: 150.0 mg/kg/injection, schedule: Q01DX001 (ip), vehicle: saline) was 90 % of control and the T/C (dose: 300.0 mg/kg/injection, schedule: Q01DX001 (ip), vehicle: saline) was 88 % of control.
In the case of `Cc1c2ccccc2c(CSC(=N)N)c2ccccc12`, the T/C (dose: 4.0 mg/kg/injection, schedule: Q01DX009 (ip), vehicle: saline sonified) is reported as 119 % of control, the T/C (dose: 4.0 mg/kg/injection, schedule: Q01DX009 (ip), vehicle: saline with Tween-80) is reported as 112 % of control and the T/C (dose: 4.0 mg/kg/injection, schedule: Q01DX009 (ip), vehicle: saline) is reported as 120 % of control. For the same compound, the T/C (dose: 6.25 mg/kg/injection, schedule: Q01DX009 (ip), vehicle: saline) was 109 % of control, the T/C (dose: 6.25 mg/kg/injection, schedule: Q04DX003 (ip), vehicle: saline) was 98 % of control and the T/C (dose: 8.0 mg/kg/injection, schedule: Q01DX009 (ip), vehicle: saline sonified) was 117 % of control. For the same compound, the T/C (dose: 8.0 mg/kg/injection, schedule: Q01DX009 (ip), vehicle: saline with Tween-80) was 119 % of control, the T/C (dose: 12.5 mg/kg/injection, schedule: Q01DX009 (ip), vehicle: saline sonified) was 150 % of control and the T/C [1] was 108 % of control. The T/C (dose: 12.5 mg/kg/injection, schedule: Q01DX009 (ip), vehicle: saline) was 123 % of control, the T/C (dose: 12.5 mg/kg/injection, schedule: Q04DX003 (ip), vehicle: saline) was 108 % of control and the T/C (dose: 18.75 mg/kg/injection, schedule: Q01DX009 (ip), vehicle: saline sonified) was 95 % of control. For the same compound, the T/C (dose: 18.75 mg/kg/injection, schedule: Q01DX009 (ip), vehicle: saline with Tween-80) was 87 % of control, the T/C (dose: 25.0 mg/kg/injection, schedule: Q01DX009 (ip), vehicle: saline) was 93 % of control and the T/C (dose: 25.0 mg/kg/injection, schedule: Q04DX003 (ip), vehicle: saline) was 114 % of control and 118 % of control.
In the case of `O=C(O)C1C(c2c3ccc(=O)c(O)c-3oc3c(O)c(O)ccc23)C2(Cl)C(Cl)=C(Cl)C1(Cl)C2(Cl)Cl` (stereo unspecified), the T/C (dose: 50.0 mg/kg/injection, schedule: Q01DX009 (ip), vehicle: alcohol) is reported as 92 % of control, the T/C (dose: 100.0 mg/kg/injection, schedule: Q01DX009 (ip), vehicle: alcohol) is reported as 92 % of control and the T/C (dose: 100.0 mg/kg/injection, schedule: Q04DX003 (ip), vehicle: alcohol) is reported as 100 % of control. For the same compound, the T/C (dose: 200.0 mg/kg/injection, schedule: Q04DX003 (ip), vehicle: alcohol) was 95 % of control.
In the case of `O=C(O)CC12CCCCC1CCCC2` (stereo unspecified), the T/C (dose: 100.0 mg/kg/injection, schedule: Q01DX009 (ip), vehicle: acetone) is reported as 94 % of control, the T/C (dose: 200.0 mg/kg/injection, schedule: Q01DX009 (ip), vehicle: acetone) is reported as 100 % of control and the T/C (dose: 400.0 mg/kg/injection, schedule: Q01DX009 (ip), vehicle: acetone) is reported as 94 % of control.
In the case of `O=Nc1[nH]c(O)c2ccccc12`, the T/C [2] is reported as 97 % of control and 91 % of control, the T/C (dose: 200.0 mg/kg/injection, schedule: Q04DX003 (ip), vehicle: Klucel (hydroxypropylcellulose) (HPC)) is reported as 99 % of control and 103 % of control and the T/C [3] is reported as 103 % of control and 89 % of control.
For `COc1cccc(C)c1NC1=NCCO1`, the T/C (dose: 1.56 mg/kg/injection, schedule: Q01DX009 (ip), vehicle: saline with Tween-80) was 97 % of control, the T/C (dose: 1.56 mg/kg/injection, schedule: Q04DX003 (ip), vehicle: saline with Tween-80) was 97 % of control and the T/C (dose: 3.13 mg/kg/injection, schedule: Q01DX009 (ip), vehicle: saline with Tween-80) was 116 % of control. The T/C (dose: 3.13 mg/kg/injection, schedule: Q04DX003 (ip), vehicle: saline with Tween-80) was 100 % of control, the T/C (dose: 6.25 mg/kg/injection, schedule: Q01DX009 (ip), vehicle: saline with Tween-80) was 101 % of control and the T/C (dose: 6.25 mg/kg/injection, schedule: Q04DX003 (ip), vehicle: saline with Tween-80) was 100 % of control and 101 % of control. The T/C (dose: 25.0 mg/kg/injection, schedule: Q04DX003 (ip), vehicle: saline with Tween-80) was 96 % of control.
For `CN(C)c1nc(N)c(C#N)c(C#N)c1C#N`, the T/C (dose: 50.0 mg/kg/injection, schedule: Q01DX001 (ip), vehicle: saline) was 96 % of control, the T/C [4] was 96 % of control and the T/C (dose: 200.0 mg/kg/injection, schedule: Q01DX001 (ip), vehicle: saline) was 100 % of control.
With `O=C(O)C(O)C(Br)C(=O)O` (stereo unspecified) the T/C (dose: 50.0 mg/kg/injection, schedule: Q04DX003 (ip), vehicle: saline) was 95 % of control, the T/C [4] was 95 % of control and the T/C (dose: 100.0 mg/kg/injection, schedule: Q04DX003 (ip), vehicle: saline) was 104 % of control.
`N#CC(C#N)=Cc1cccc([N+](=O)[O-])c1` was tested, and the T/C (dose: 50.0 mg/kg/injection, schedule: Q01DX001 (ip), vehicle: carboxymethylcellulose (CMC)) was 102 % of control, the T/C [5] was 102 % of control and the T/C (dose: 100.0 mg/kg/injection, schedule: Q01DX009 (ip), vehicle: Klucel (hydroxypropylcellulose) (HPC)) was 97 % of control. For the same compound, the T/C [2] was 102 % of control and the T/C [3] was 106 % of control.
For `CCc1c(Nc2ccc(Cl)c(Cl)c2)[nH]c(N)nc1=S`, the T/C (dose: 100.0 mg/kg/injection, schedule: Q01DX Z (ip), vehicle: methylcellulose (MC)) was 90 % of control and the T/C (dose: 200.0 mg/kg/injection, schedule: Q01DX Z (ip), vehicle: methylcellulose (MC)) was 105 % of control.
`O=C1O[B-](c2ccccc2)(c2ccccc2)[NH2+]C1Cc1ccc(O)cc1` (stereo unspecified) was tested, and the T/C (dose: 75.0 mg/kg/injection, schedule: Q01DX001 (ip), vehicle: acetone) was 91 % of control, the T/C (dose: 150.0 mg/kg/injection, schedule: Q01DX001 (ip), vehicle: acetone) was 96 % of control and the T/C (dose: 300.0 mg/kg/injection, schedule: Q01DX001 (ip), vehicle: acetone) was 95 % of control.
In the case of `C1CCC(CCC(CCC2CCCCC2)CCC2CCCCC2)CC1`, the T/C (dose: 100.0 mg/kg/injection, schedule: Q01DX001 (ip), vehicle: Klucel (hydroxypropylcellulose) (HPC)) is reported as 89 % of control, the T/C (dose: 200.0 mg/kg/injection, schedule: Q01DX001 (ip), vehicle: Klucel (hydroxypropylcellulose) (HPC)) is reported as 91 % of control and the T/C (dose: 400.0 mg/kg/injection, schedule: Q01DX001 (ip), vehicle: Klucel (hydroxypropylcellulose) (HPC)) is reported as 91 % of control.
In the case of `On1ccc(N2CCOCC2)cc1=NC1CCCCC1`, the T/C (dose: 5.0 mg/kg/injection, schedule: Q01DX001 (ip), vehicle: saline) is reported as 95 % of control, the T/C (dose: 10.0 mg/kg/injection, schedule: Q01DX001 (ip), vehicle: saline) is reported as 97 % of control and the T/C (dose: 20.0 mg/kg/injection, schedule: Q01DX001 (ip), vehicle: saline) is reported as 90 % of control. The T/C (dose: 40.0 mg/kg/injection, schedule: Q01DX001 (ip), vehicle: saline) was 98 % of control, the T/C (dose: 80.0 mg/kg/injection, schedule: Q01DX001 (ip), vehicle: saline) was 101 % of control and the T/C [4] was 103 % of control.
`CC12CCC3(CC1CCC1OC12)OCCO3` (stereo unspecified) was tested, and the T/C [5] was 103 % of control, the T/C (dose: 200.0 mg/kg/injection, schedule: Q01DX001 (ip), vehicle: carboxymethylcellulose (CMC)) was 100 % of control and the T/C (dose: 400.0 mg/kg/injection, schedule: Q01DX001 (ip), vehicle: carboxymethylcellulose (CMC)) was 97 % of control.
With `Clc1nccc2n[nH]nc12` the T/C (dose: 100.0 mg/kg/injection, schedule: Q01DX001 (ip), vehicle: other) was 94 % of control, the T/C (dose: 100.0 mg/kg/injection, schedule: Q04DX003 (ip), vehicle: other) was 103 % of control and the T/C (dose: 200.0 mg/kg/injection, schedule: Q01DX001 (ip), vehicle: other) was 91 % of control. For the same compound, the T/C (dose: 200.0 mg/kg/injection, schedule: Q04DX003 (ip), vehicle: other) was 100 % of control, the T/C (dose: 400.0 mg/kg/injection, schedule: Q01DX001 (ip), vehicle: other) was 103 % of control and the T/C (dose: 400.0 mg/kg/injection, schedule: Q04DX003 (ip), vehicle: other) was 107 % of control.
With `[Cl][Hg][c]1ccc2ccccc2c1` the T/C (dose: 6.25 mg/kg/injection, schedule: Q01DX005 (ip), vehicle: saline with Tween-80) was 104 % of control, the T/C (dose: 12.5 mg/kg/injection, schedule: Q01DX005 (ip), vehicle: saline with Tween-80) was 97 % of control and the T/C [1] was 92 % of control. For the same compound, the T/C (dose: 25.0 mg/kg/injection, schedule: Q01DX005 (ip), vehicle: saline with Tween-80) was 104 % of control.
